*: point of attachment. Cbz = O=C(OCc1ccccc1)*; CH2F = FC*
Assays:
[1] = system: procaspase-6 cleavage in primary hepatocytes; test: Procaspase-6 cleavage induced by TNFα and CHX in primary hepatocytes (IB); format: cell-based, mice; details: 10 μM pretreatment 1 hr, then 30 μg/ml CHX and 50 ng/ml TNFα 2 hrs
Excerpt: FIGS. 5A-5K. AMPK phosphorylates caspase-6 to inhibit its cleavage and activation. FIG. 5A. […] IB analysis of cell lysates. n=3. Mean±SD. *, P<0.05, two-way ANOVA. FIG. 5B. […] Cell lysates were subject to caspase-6 activity assay. Mean±SD. *, P<0.05. FIG. 5C. Caspase-6 Ser^257 locates within AMPK substrate motif. FIG. 5C. discloses SEQ ID NOS 57-63, respectively, in order of appearance. FIG. 5D. In vitro kinase assay using recombinant caspase-6, and recombinant AMPKα1β1γ1 or AMPKα2β1γ1 active kinase. FIG. 5E. Alignment of caspase-6 sequence. FIG. 5E. discloses SEQ ID NOS 64-67, respectively, in order of appearance. FIG. 5F. HEK293T cells overexpressing caspase-6-myc WT, S^257A, S^257D or S^257E mutant were treated with 10 μg/ml CHX and 25 ng/ml TNFα for 2 hrs. IB analysis of cell lysates. FIGS. 5G-5J. C57BL/6J mice were fed CD-HFD for 6 weeks, followed by intraperitoneally injection of 25 mg/kg A-769662 or vehicle daily for 2 weeks while continuous CD-HI-D. Mice were sacrificed 6 hrs after last injection. FIG. 5G. IB analysis of liver lysates. n=5. FIG. 5H. Liver lysates were subject to caspase-6 activity assay. n=7. FIG. 5I. Liver sections stained as indicated therein (aCasp6 and DAPI); in the merged image sections, the different stains correspond to the grayscale shades as indicated in the single stained images to the left. Scale bar=50 μm. […] Quantification of aCasp6 staining per field in FIG. 5I. n=7. […]

[2] = system: CD-HFD-fed Flox and LAKO mice; test: Caspase-6 inhibitor Z-VEID-FMK in CD-HFD-fed Flox and LAKO mice; format: in vivo
Excerpt: FIG. 4A. […] Scale bar=50 μm. FIG. 4B. […] FIG. 4F. […] Scale bar=100 μm. FIG. 4G. […] Scale bar=50 μm.
FIG. 6A. […] FIG. 6B. […] FIG. 6C. […] FIG. 6D. […] FIG. 6E. […] FIG. 6F.
FIGS. 14A-14G. […] FIG. 14A. […] Scale bar=100 μm.

[3] = system: cleaved caspase-3 and -7 in primary hepatocytes; test: Caspase cascade after CHX plus TNFα and medium change in primary hepatocytes (IB); format: cell-based, mice; details: 25 μM pretreatment 1 hr, CHX and TNFα 2 hrs, medium changed for 4 hrs
Description: FIGS. 16A-16D. Caspase-6 sustain activation of caspase cascade to induce apoptosis. FIG. 16A. HepG2 cells transfected with scrambled RNA or caspase-6 siRNA were treated with vehicle or 300 μg/ml CHX and 50 ng/ml TNFα for 20 hrs. Viability was measured by CCK-8 assay. Data are shown as mean±SD. *, P<0.05, two-way ANOVA. FIG. 16B. HepG2 cells transfected with scrambled RNA or Caspase-6 siRNA were treated with vehicle or 30 μg/ml CHX and 50 ng/ml TNFα for 2 hrs. Medium was changed to remove treatment. Cells were harvested at indicated time points. Cell lysates were subject to IB analysis. FIG. 16C. Isolated primary hepatocytes were pretreated with 25 μM Z-VEID-FMK (VEID) (SEQ ID NO: 71) for 1 hr and treated with 30 μg/ml CHX and 50 ng/ml TNFα for 2 hrs. Medium was changed to remove treatment for 4 hrs. Cell lysates were subject to IB analysis. FIG. 16D. Proposed model for roles of AMPK/caspase-6 axis in the regulation of NASH-associated liver damage. […]
Western blot was performed as previously described(11). […] Supernatants were collected and analyzed with BCA (Thermo Scientific) to quantify protein content. […] Individual proteins were detected with specific antibodies and visualized on film using horseradish peroxidase-conjugated secondary antibodies (Fisher Scientific) and SuperSignal West Pico PLUS Chemilunminescent Substrate (Thermo Scientific).

[4] = both Flox and LAKO mice, 5 mg/kg i.p. every other day for two weeks

Row | Compound | procaspase-6 cleavage caused by TNFα and CHX [1] | difference in liver damage between Flox and LAKO mice ([2]; 5 mg/kg i.p. every other day for two weeks) | cytosolic cytochrome c (liver fractions, IB) ([2]; both Flox and LAKO mice, 5 mg/kg i.p. every other day for 2 weeks) | liver fibrosis (Sirius red fibrosis area, liver hydroxyproline) [2, 4] | number of apoptotic hepatocytes (TUNEL) [2, 4] | serum ALT activity [2, 4] | cleaved caspase-3 and -7 [3]
1 | COC[C@@H]1CCCN1S(=O)(=O)c1ccc2c(c1)C(=O)C(=O)N2 [caspase-3 and -7 inhibitor] | largely attenuated |  |  |  |  |  | 
2 | Z-VEID-FMK (Cbz-VEID-CH2F) |  | abrogated | decreased | reduced | significantly reduced | decreased | significant decrease

From patent US20220184172A1, “AMPK/CASPASE-6 AXIS CONTROLS LIVER DAMAGE IN NONALCOHOLIC STEATOHEPATITIS” (The Regents of the University of California, priority 2019, published 2022)
